Row | melting point [°C] | SMILES
1 | 130 to 134 | Cc1ccc(CNc2nc(Nc3cccc(N4CCOCC4)c3)nc(OCC(F)(F)F)n2)o1
2 | 129 to 132 | OC(c1ccc2c(c1)CCN2)(C(F)F)C(F)(F)F (configuration not stated)
3 | 169 to 170 | O=C(O)C(=O)c1ccc(OCCCNC(=O)c2ccc3ccccc3c2)cc1
4 | 133 to 134 | CCOC(=O)C1=C(C)NC(c2cscn2)=NC1c1cccc(C)c1 (configuration not stated)
5 | 145 to 147 | COc1ccc(C(=O)OC2CC3C(=O)NC4(C(=O)NS(=O)(=O)C5CC5)CC4C=CCOCCCC(NC(=O)OC(C)(C)C)C(=O)N3C2)cc1 (configuration not stated)
6 | 70 to 71 | CCOC(=O)C1COc2cc(C)c(C)cc2O1 (configuration not stated)
7 | 151 to 152 | Cc1nnc(-c2ccc3occ(-c4cnn(Cc5ccccc5)c4)c3c2)o1
8 | 125 to 126 | O=C(c1c(F)cccc1F)N1COCN(c2ccc(Cl)cc2)C1=O
9 | 268 to 270 | Cc1c(-c2nnn[nH]2)oc2c(c1=O)CS(=O)(=O)c1ccccc1-2
10 | 138 to 140 | COc1ccc(N2C(=O)O[C@H](COC(=O)c3ccc([N+](=O)[O-])cc3)[C@@H]2C)cc1
11 | 130 to 131 | C#CCOC(=O)c1ccc(SC(C)CCCC(C)C)cc1 (configuration not stated)
12 | 38 to 40 | CCCCCCCCCCCCc1nnn(CC(=O)OCC)n1
13 | 223 to 224 | O=C(Nc1cc(Cl)c(O)c(Cl)c1)c1ccc(F)cc1O
14 | 95 to 96 | CCOC(=O)C(CCN1CCN(c2ncc(F)cn2)CC1)C(=O)c1ccc(F)cc1 (configuration not stated)
15 | 184 to 186 | CCOC(=O)NNC(=O)Cc1c(C)cc(C)cc1C
16 | 165 to 166 | Cc1oc(-c2ccc(C(F)(F)F)cc2)nc1-c1ccc(-c2cc(Br)c(OCC(=O)O)c(Br)c2)cc1
17 | 81 to 83 | C/C(=C\Cn1oc(=O)[nH]c1=O)c1ccc2oc(Cc3nc(-c4ccccc4)oc3C)cc2c1
18 | 87 to 89 | CCCCCCCCCCCCCCC(=O)C(=O)N[C@H](C(=O)NCC(=O)O)C(C)C
19 | 130 to 132 | CCOC(=O)C1=C(COCc2nnn(CC(N)=O)n2)NC(C)=C(C(=O)OC)C1c1cccc(Cl)c1Cl (configuration not stated)
20 | 130 to 132 | CC1(C)CCC(C)(C)c2cc(NC(=O)c3ccc(OCCN4CCOCC4)cc3)ccc21
21 | 191 to 194 | CNC(=O)NCCn1c(-c2ccc(N3CCOCC3)cc2)csc1=Nc1ccc(F)cc1
22 | 173 to 175 | CCOC(=O)c1cn(C2CC2)c2c(F)c(NCC(O)CO)c(F)cc2c1=O (configuration not stated)
23 | 136 | CSc1nnc(-c2ccc(Cl)nc2)s1
24 | 265 | O=C(CC12CC3CC(CC(C3)C1)C2)Nc1ccc2[nH]ncc2c1

Row | melting point [°C] | SMILES
25 | > 250 | CCOc1nc(O)cc(O)n1
26 | 102 to 104 | COCc1nc2c3c(ccn2c1C)[C@@H](O)[C@H](O)[C@@H](c1ccccc1)N3
27 | 273 to 276 | O=C(O)c1cnc2c3ccccc3c(O)cn2c1=O
28 | 137 | CC(C1CC1)C(O)(Cn1nc[nH]c1=S)c1ccc(Cl)cc1 (configuration not stated)
29 | 201 to 202 | Cn1ncc(/C=C/C(=O)Nc2ccc(CCc3nccs3)cc2)c1-c1ccc(F)cc1
30 | 141 | CCOC(=O)c1ccc(-c2ccc(OCCCNC)c(-c3ccc4c(c3)C(C)(C)CCC4(C)C)c2)cc1
31 | 260 to 264 | Cc1[nH]cnc1/C=C1\CCc2c(c3cccc4c3n2CCC4)C1=O
32 | 180 | NC(=Nc1ccc(N2CCNCC2)cc1)c1cccs1
33 | 147 to 148 | CC(C)(C)c1ccc(CCCCC(O)C2CCCCC2)cc1NC(=O)CC1c2ccccc2Oc2ccccc21 (configuration not stated)
34 | 161 to 164 | Cc1c(CCc2ccc3[nH]c(N)nc3c2)ncn1C(c1ccccc1)(c1ccccc1)c1ccccc1
35 | 186 to 187 | CC(=O)OC[C@H](Cc1ccccc1)NC(=O)[C@H](Cc1ccccc1)NC(=O)c1ccccc1
36 | 181 to 183 | CCN(CC)C(=O)c1ccc2ccccc2c1-c1ccc(C)cc1
37 | 74 to 76 | O=C(Cc1ccc(Cl)cc1)c1ccc(OC(F)F)cc1
38 | 180 to 182 | CS(=O)c1ccc(-c2c(-c3ccncc3)nc3n2CCC3)cc1 (configuration not stated)
39 | 73 to 76 | O=S(c1ccncc1)C1CCNCC1 (configuration not stated)
40 | 112 to 113 | Cc1ccc(C(=O)NCCC(=O)OCc2ccccc2)c(NC(=O)CCCCNC(=O)OC(C)(C)C)c1
41 | 126 to 127 | CCOC(=O)CCc1cn(Cc2cc(OCc3ccccc3)cc(OCc3csc(-c4cnccn4)n3)c2)cc1-c1ccccc1
42 | 138 to 140 | CC=CCOc1ccc(C)c2c1C(=O)C(C)C2c1ccccc1 (configuration not stated)
43 | 124 to 126 | COCCNC(=O)c1cc(F)cc(-c2cccc3c(C)c(Cc4cccc(C(F)(F)F)c4)sc23)c1
44 | 167 to 169 | CCOC(=O)C1=C(C)NC(C)=C(C(=O)OCC)C1c1cc2ccccc2s1
45 | 174 to 175 | O=c1cc(-c2nnn[nH]2)oc2c(/C=C/c3ccc(OCCCCc4ccc(F)cc4)cc3)cccc12
46 | 158 to 160 | CC(=O)N[C@@H](CO)C(=O)NCc1ccc(N)cc1
47 | 181 to 183 | CC(C)(C)c1cc(CCc2ccccc2NC(=O)NCc2ccccc2)cc(C(C)(C)C)c1O
48 | 40 to 41 | COc1ccc(-c2ccc(C)c3occc23)cc1

Row | melting point [°C] | SMILES
49 | 168 to 169 | Cc1nc2c(Cl)c(NC(=O)c3ccc(-c4ccccc4)cc3)ccc2s1
50 | 140 | Nc1c(Cl)ncnc1NCc1ccccn1
51 | 145 to 147 | N#Cc1ccc2c(c1)Sc1ccccc1CC2
52 | 162 to 164 | COc1cc(OC)c(NC(=O)Nc2ccccc2)cc1O
53 | 103 to 106 | CCOC(=O)C(=O)c1ccc(OCC(=O)N2CCOCC2)cc1
54 | 179 | CCOC(=O)Cn1nc(-c2ccc(C)cc2)c(C(N)=O)c1N
55 | 99 to 102 | CC(C=O)=Cc1cc([N+](=O)[O-])ccc1Cl
56 | 215 to 218 | COc1ccc(NC(=O)C2=C(O)c3ccccc3S(=O)(=O)N2C)ccc1=O
57 | 167 | CCCCNc1nc(N)nc(N)n1
58 | 165 to 176 | O=C(O)c1ccc(CN2CCC(CCCC(=O)c3ccc4c(c3)CCN(Cc3ccccc3)CC4)CC2)cc1
59 | 135 to 136 | CC(C)c1cccc(C(C)C)c1NC(=O)CNC(c1ccccc1)c1ccccn1 (configuration not stated)
60 | 135 to 136 | Nc1ccc(C(=O)OC2CCN(Cc3ccccc3)CC2)cn1
61 | 126 to 128 | CC1(CO)Cc2c(cc(C(C)(C)C)c(O)c2C(C)(C)C)O1 (configuration not stated)
62 | 190 to 191 | Cc1ccc(-c2ccc(S(C)(=O)=O)cc2)n1-c1ccc(-c2nccs2)cc1
63 | 92 to 94 | CS(=O)(=O)Nc1ccccc1OCCCN1CCC(OC(c2ccsc2)c2ccsc2)CC1
64 | 94 | CCOC(=O)c1c2c(nc3ccccc13)CCN(C(=O)OCC)CC2
65 | 128 to 129 | Clc1ccc(-n2ncc3c2-c2ccccc2C3)cc1
66 | 196 to 198 | CCOC(=O)c1c(N)c2ccc(C)nc2n(CC)c1=O
67 | 93 to 96 | O=C(OC(c1ccccc1)c1ccccc1)C(=C(CBr)N1CCOCC1)N1C(=O)C2N=C(Cc3ccccc3)SC21 (configuration not stated)
68 | 187 to 188 | O=C(N[C@H](Cc1ccc(C(F)(F)F)cc1)[C@@H](O)c1ccc(F)cc1)c1cccc(Cl)c1Cl (racemic)
69 | 93 to 95 | COc1cc(/C=C/C(=O)/C=C/c2ccc(OC(F)(F)F)cc2)ccc1O
70 | 120 to 121 | COc1cccc(Sc2ccnc(Nc3cccc(CN)c3)n2)c1
71 | 162 | C[C@@H](CSC(=O)c1ccccc1)C(=O)N1C(=O)N(C)C[C@H]1C(=O)O
72 | 109 to 111 | C=CCc1c(O)c(Cl)cc(F)c1N1C(=O)C2=C(CCCC2)C1=O

Row | melting point [°C] | SMILES
73 | 118 to 120 | COCCOCCn1cc(C(=O)NCc2ccc(Cl)cc2)c(=O)c2cc(CN(C)CC#N)ccc21
74 | 137 | CC(=O)SCC(=O)c1ccc(Cl)c(S(N)(=O)=O)c1
75 | 216 to 217 | CC=CC(=O)Nc1c(C(O)(C(F)(F)F)C(F)(F)F)ccc2ccccc12
76 | 256 to 257 | O=C(O)c1sccc1SSc1ccsc1C(=O)O
77 | 75 to 76 | CCCCC(Oc1c(Br)cc(-c2ccc(-c3c(Cc4ccccc4)oc4ccccc34)cc2)cc1Br)C(=O)O (configuration not stated)
78 | 169 to 170 | Cc1nonc1-n1cc(C(=O)O)c(=O)c2cc(F)c(N3CC[C@H](N)C3)c(F)c21
79 | 184 to 185 | CS(=O)(=O)C(C#N)=Cc1ccc2[nH]ccc2c1
80 | 192 to 193 | CCc1cccc(CCC(O)c2ccccc2)c1NC(=O)CC1c2ccccc2Oc2ccccc21 (configuration not stated)
81 | 72 | CCN1C(=O)CCC2=C1CCc1cc(F)ccc12
82 | 136 to 137 | CCOC(=O)C1=C(C)NC(C=NO)=C(C(=O)OCC)C1c1ccccc1Cl (configuration not stated)
83 | 74 to 75 | CC(=O)Oc1ccc(C2(c3ccc(OC(C)=O)cc3)C(c3ccccc3)C2(Cl)Cl)cc1 (configuration not stated)
84 | 185 to 188 | CCC1C(=O)C2C3CCC(C(C)CCC(=O)O)C3(C)CCC2C2(C)CCC(O)CC12 (configuration not stated)
85 | 155 to 156 | Oc1ccc(N2CCN(Cc3nc4ccccc4o3)CC2)cc1
86 | 170 | O=C(O)COc1cccc2c1CCC(Cc1c[nH]c(C(c3ccccc3)c3ccccc3)n1)C2 (configuration not stated)
87 | 98 to 99 | COc1ccc(C(=O)Nc2cc(NC(=O)c3cccc(N(C)C)c3)ccc2Cl)cc1OC
88 | 120 | CCOC(=O)c1ccc(NC(=O)NCCN2CCN=C2c2ccncc2)cc1
89 | 128 to 130 | O=C(O)CNc1ccc(Cl)c(Cl)c1
90 | 228 to 231 | COc1ccc2c(=O)n(S(=O)(=O)c3ccc(C)cc3)c(=O)[nH]c2c1
91 | 184 to 187 | CCOC(=O)c1cn(Cc2c(F)cccc2F)c2cc(Br)c(CBr)cc2c1=O
92 | 172 to 174 | O=C1CCNC(=O)C1C(=O)c1ccc(Cl)c(Cl)c1 (configuration not stated)
93 | 201 to 203 | CC(=O)OCc1c(C#N)cnc2c(NC(=O)c3c(Cl)cccc3Cl)cccc12
94 | 160 to 162 | CCOC(=O)C(=O)Nc1ccc(C=Cc2ccc3ccccc3n2)cc1

Row | SMILES | melting point [°C]
95 | NC(=S)c1ncn2c1[C@@H]1CCCN1C(=O)c1c(Cl)cccc1-2 | 247 to 248
96 | O=C(CCC(F)([N+](=O)[O-])[N+](=O)[O-])NNC(=O)C(F)(F)C(F)(F)F | 128 to 132
97 | CN(C)C1(c2ccccc2)CCC(c2c[nH]c3ncccc23)CC1 (configuration not stated) | 130 to 133
